# In paper doi:10.1101/2020.11.09.375162v1 (biorxiv, 2020):
# Like-named read-outs stand apart in the source and are kept apart here.
# Legend:
# [1] = biological target: T1, mouse CB2 receptor (mCB2) (Mus musculus, UniProt P47936); assay: cAMP assay, CHO cells; type: cell-based; conditions: agonist
# [2] = biological target: T2, human CB1 receptor (hCB1) (Homo sapiens, UniProt P21554); assay: biochemical
# [3] = biological target: T3, human CB2 receptor (hCB2) (Homo sapiens, UniProt P34972); assay: cell-based; conditions: read-out: cAMP Emax hCB2
# T3 sequence (P34972 whole entry): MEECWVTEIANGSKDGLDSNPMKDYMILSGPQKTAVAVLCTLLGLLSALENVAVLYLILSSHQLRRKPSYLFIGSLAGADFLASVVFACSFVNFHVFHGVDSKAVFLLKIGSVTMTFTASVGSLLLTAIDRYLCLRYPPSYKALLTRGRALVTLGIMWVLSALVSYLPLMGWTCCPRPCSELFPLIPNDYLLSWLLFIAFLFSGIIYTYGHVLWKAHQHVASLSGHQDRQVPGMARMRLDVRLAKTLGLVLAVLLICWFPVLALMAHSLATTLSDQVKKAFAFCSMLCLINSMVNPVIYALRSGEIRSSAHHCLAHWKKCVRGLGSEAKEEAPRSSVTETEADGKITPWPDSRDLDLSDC
# [4] = biological target: T2, human CB1 receptor (hCB1); assay: cell-based; conditions: read-out: cAMP Emax hCB1
# [5] = biological target: T1, mouse CB2 receptor (mCB2); assay: cell-based; conditions: read-out: cAMP Emax mCB2
# [6] = biological target: T3, human CB2 receptor (hCB2); assay: PathHunter beta-arrestin recruitment, CHO-K1; type: cell-based
# [7] = biological target: T3, human CB2 receptor (hCB2); conditions: Gi1 activation
# [8] = biological target: T3, human CB2 receptor (hCB2); conditions: Gi2 activation
# [9] = biological target: T3, human CB2 receptor (hCB2); conditions: Gi3 activation
# [10] = biological target: T3, human CB2 receptor (hCB2); conditions: GoA activation
# [11] = biological target: T3, human CB2 receptor (hCB2); conditions: GoB activation
# [12] = biological target: T3, human CB2 receptor (hCB2); conditions: beta-arrestin1 recruitment
# [13] = biological target: T3, human CB2 receptor (hCB2); conditions: beta-arrestin2 recruitment
# [14] = biological target: T3, human CB2 receptor (hCB2); assay: [3H]-CP55940 competition, membranes; type: binding
# [15] = biological target: T1, mouse CB2 receptor (mCB2); assay: [3H]-CP55940 competition, membranes; type: binding
# [16] = biological target: T1, mouse CB2 receptor (mCB2); assay: cell-based
# [17] = biological target: T2, human CB1 receptor (hCB1); assay: cell-based
# [18] = biological target: T1, mouse CB2 receptor (mCB2); assay: cAMP assay, CHO cells; type: cell-based
# [19] = biological target: T2, human CB1 receptor (hCB1); assay: [3H]-CP55940 competition, membranes; type: binding
# [20] = biological target: T2, human CB1 receptor (hCB1); assay: cAMP assay, CHO cells; type: cell-based; conditions: agonist
# [21] = biological target: T1, mouse CB2 receptor (mCB2); assay: biochemical
# [22] = biological target: T2, human CB1 receptor (hCB1); assay: PathHunter beta-arrestin recruitment, CHO-K1; type: cell-based
# [23] = biological target: T2, human CB1 receptor (hCB1); assay: [3H]-CP55940 competition, membranes; type: binding; remark: listed apart in the source
# T1 sequence (P47936 whole entry): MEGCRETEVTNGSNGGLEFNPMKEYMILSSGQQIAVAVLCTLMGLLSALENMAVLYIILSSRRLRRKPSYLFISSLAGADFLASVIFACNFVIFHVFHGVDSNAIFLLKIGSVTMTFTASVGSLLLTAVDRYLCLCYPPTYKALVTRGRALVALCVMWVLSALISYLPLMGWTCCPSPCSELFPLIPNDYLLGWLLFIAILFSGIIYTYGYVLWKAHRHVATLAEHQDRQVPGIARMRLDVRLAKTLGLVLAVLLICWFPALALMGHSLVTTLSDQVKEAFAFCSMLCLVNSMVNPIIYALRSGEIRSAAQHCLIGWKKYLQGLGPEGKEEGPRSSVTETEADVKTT
# T2 sequence (P21554 whole entry): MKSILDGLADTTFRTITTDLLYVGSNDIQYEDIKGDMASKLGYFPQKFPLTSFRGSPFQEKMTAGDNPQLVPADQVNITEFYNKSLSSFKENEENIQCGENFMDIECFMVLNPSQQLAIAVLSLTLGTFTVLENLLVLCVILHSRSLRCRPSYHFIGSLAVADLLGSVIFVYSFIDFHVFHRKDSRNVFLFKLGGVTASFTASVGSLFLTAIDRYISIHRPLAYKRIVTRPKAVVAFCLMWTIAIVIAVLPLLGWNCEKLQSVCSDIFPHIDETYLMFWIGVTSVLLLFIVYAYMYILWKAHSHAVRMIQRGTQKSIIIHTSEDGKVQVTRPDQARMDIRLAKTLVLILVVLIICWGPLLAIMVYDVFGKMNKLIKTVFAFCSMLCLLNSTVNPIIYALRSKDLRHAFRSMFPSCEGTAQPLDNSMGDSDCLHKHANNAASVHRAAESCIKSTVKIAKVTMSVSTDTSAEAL
compound,measurement,setting,value
CCCCCCC(C)(C)c1ccc([C@@H]2C[C@H](O)CC[C@H]2CCCO)c(O)c1 [CP55940],cAMP pEC50,[1],10.17
CCOC(=O)C(CC)(CC)NC(=O)c1ccc(N2CCCC2)c(OCC2CC2)n1 [RO6843766],Ki,[2],617 nM
same,Emax,[3],91%
same,Emax,[4],59%
same,Emax,[5],61%
CN1CCCCC1Cn1cc(C(=O)c2cc([N+](=O)[O-])ccc2I)c2ccccc21 (racemic) [(rac)-AM1241],EC50,[6],> 10000 nM
CCN1CCN(c2nc(C3CC3)nc3c2nnn3Cc2ccccc2Cl)CC1 [RO6435559],Gi1 pEC50,[7],7.984 M
same,Gi2 pEC50,[8],8.154 M
same,Gi3 pEC50,[9],7.941 M
same,GoA pEC50,[10],7.998 M
same,GoB pEC50,[11],7.794 M
same,β-arrestin1 pEC50,[12],8.518 M
same,β-arrestin2 pEC50,[13],8.131 M
CN1CCN(c2nc(C(C)(C)C)nc3c2nnn3Cc2ccccc2Cl)CC1 [RO6844395],pKi,[14],7.67
same,pKi,[15],6.87
same,pKi hCB1,[2]; binder,5.76 M
same,Emax,[3],99%
same,Emax,[4],57%
same,cAMP pEC50 mCB2,"[16]; cAMP, agonist",7.30 M
same,Emax,[5],80%
same,Gi1 pEC50,[7],7.855 M
same,Gi2 pEC50,[8],7.499 M
same,Gi3 pEC50,[9],7.994 M
same,GoA pEC50,[10],7.607 M
OCCSc1nc(N2CCC(F)(F)C2)c2nnn(Cc3ccccc3Cl)c2n1 [RO6878558],pKi,[14],6.94
same,Ki,[2],> 10000 nM
same,Emax,[3],87%
same,EC50,[17],> 10000 nM
same,Emax,[4],20%
same,Emax,[5],92%
CC(C)(C)c1nc(-c2cc(OCc3ccc(F)cc3)c(C3CC3)c(Cl)n2)no1 [RO6926274],cAMP pEC50,[18],< 5
CCOC(=O)[C@H](CC(C)C)NC(=O)c1ccc(C2CC2)c(Cc2ccc(F)cc2)n1 [RO6853973],pKi,[19],8.21
same,pKi,[14],9.45
same,cAMP pEC50,[20],8.12
same,Ki,[21],0.676 nM
same,Emax,[3],45%
same,Emax,[4],83%
same,EC50,[16],> 10000 nM
same,Emax,[5],23%
"CC(C)(C)c1noc(-c2ccc(C3CC3)c(Cc3ccc(F)cc3)n2)n1 [RO6892033, 6-(3-tert-Butyl-1,2,4-oxadiazol-5-yl)-3-cyclopropyl-2-[(4-fluorophenyl)methyl]pyridine]",EC50,[18],4.07 nM
same,Ki,[21],7.59 nM
same,Emax,[3],66%
same,Emax,[4],70%
same,Emax,[5],45%
CCCCCCC(C)(C)c1cc(OC)c([C@@H]2C=C(CO)[C@@H]3C[C@H]2C3(C)C)c(OC)c1 [HU308],EC50,[22],> 10000 nM
same,Ki,[23],> 10000 nM
O=S(=O)(Cc1ccccc1)c1nc(N2CCC(F)(F)C2)c2nnn(Cc3ccccc3Cl)c2n1 [RO6871487],Ki,[2],4570 nM
same,Ki,[21],6.92 nM
same,Emax,[3],52%
same,EC50,[17],> 10000 nM
same,Emax,[4],9%
same,EC50,[16],> 10000 nM
same,Emax,[5],24%
